Assay results taken from US10894808B2, “Polypeptide ligands specific for plasma kallikrein” (BicycleRD Limited, priority 2013, dated 2021).
*1 amine or outer side, *2 acyl side, *3 side chain or, on linkers, in order; H or OH if unused. Where a SMILES comes first, the peptide text is derived from it. Bridges are numbered along the chain shown (N, C = ends). [ ]: non-standard residue; d: D form. TBMB = c1c(C[*:1])cc(C[*:3])cc1C[*:2]; hArg = N=C(N)NCCCC[C@H](N)C(=O)O; Aze = O=C(O)[C@@H]1CCN1; Sar = CNCC(=O)O

How the values were obtained:
human plasma kallikrein = target: T1, human plasma kallikrein (Homo sapiens, UniProt P03952); assay: Functional enzyme assay, inhibition of human plasma kallikrein (Z-PheArg-AMC substrate); format: biochemical
T1 construct: purchased Stratech, UK
Procedure, shortened: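 Buffer 10 mM Tris HCl, 150 mM NaCl, 10 mM MgCl2, 1 mM CaCl2, 1 mg/mL BSA, pH 7.4, 25° C. AMC release read at ex 360/em 460 nm; linear-phase rate (typically 5–45 min) fitted by four-parameter non-linear regression for IC50, with Ki also derived.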

[1] = Plasma stability profiling Method #2 (95% plasma, MALDI-TOF), rat plasma; format: in vitro ADME; conditions: qualitative, sampled up to 46 hrs
Procedure: (§1) To obtain stability data more rapidly, peptides were also assessed in 95% plasma. Here, PBS was omitted, and a 1-5 mM peptide stock (in DMSO) was directly diluted into plasma (i.e. 2.5 μL stock into 47.5 μL plasma), giving a final concentration of 50 μM. 5 μL samples were taken at appropriate time points and frozen at −80° C. For analysis, the samples were defrosted, mixed with 25 μL of 3:3:1 acetonitrile:methanol:water, and centrifuged at 13 k for 5 min. 5 μL of the peptide-containing supernatant was aspirated and mixed with 30 mM ammonium bicarbonate in a 1:1 mixture of acetonitrile:H2O. 1 μL of this was then spotted on the MALDI plate and analysed as described above. As above, it should be noted that this is a qualitative assay serves to detect relative changes in plasma stability.

[2] = Plasma stability profiling Method #2 (95% plasma, MALDI-TOF), human plasma; format: in vitro ADME; conditions: qualitative, sampled up to 46 hrs
Procedure: as §1

[3] = Intravenous pharmacokinetics in rat; format: in vivo; conditions: in vivo, Table 8, Sprague Dawley rat, iv 5 mg/kg
Procedure: Peptides used for the pharmacokinetic studies in Example 4 were lyophilised from 10 mM HCl in water 3 times to afford the hydrochloride salts of the compounds. Solutions were dosed by intravenous bolus at 1 mg/mL in 50 mM Hepes pH 7.0, 5% glycerol, 1.9% DMSO for two compounds (Ac-(06-550) Aze3 HArg5 Sar3-(D-Arg2)) and (06-259-02)-Sar3-(D-Arg2)) at 5 mg/kg in Spraguely Dawely rats. Serial blood samples (˜0.2 mL) were taken into EDTA tubes at the indicated time points, and plasma was separated by centrifugation, and frozen at −20 C for analysis. Employing standard bioanalytical techniques, plasma samples were then analysed and quantified for parent remaining compound using a Waters, Xevo TQS LC-MS. PK parameters were determined using the software package PK Solutions 2.0 from Summit Research Services.
Peptides Ac-(06-550)-Sar3-(D-Arg)2Aze3 HArg5 (which contains the stabilising and affinity enhancing modifications Aze3 and HArg5, and a solubilising C-terminal extension Sar3-(D-Arg)2) (SEQ ID NO: 98) and Ac-(06-259-02)-Sar3-(D-Arg)2 were selected for pharmacokinetic assessment in rat. Peptides were injected intravenously in buffered solution at 1 mg/mL at 5 mg/kg Sprague Dawley rats, and blood was sampled and analysed for peptide concentrations at a number of time points post injection.

[4] = Pharmacokinetics following intravitreal injection in rabbit; format: in vivo; conditions: vitreous humour; New Zealand White rabbit, intravitreal 100 μg/eye; read-out: elimination half-life from the vitreous humour
Procedure: In this analysis, peptide Ac-(06-550)-Sar3-(D-Arg)2 Aze3 HArg5 (referred to in this study as Bicycle 1 and which contains the stabilising and affinity enhancing modifications Aze3 and HArg5, and a solubilising C-terminal extension Sar3-(D-Arg)2 (SEQ ID NO: 98); see Examples 3 and 4 herein) was assessed comparatively against the peptide Ac-(06-34-18) Phe2 Aze3 Tyr4 HArg5 Ala(ψCH2NH)6 (referred to in this study as Bicycle 2 and which is disclosed in Table 26b and FIG. 22 of PCT/EP2014/057440). New Zealand White rabbits (2-3 kg) were anaesthetized and both peptides were administered by intravitreal injection (100 μg/eye) according to the protocol described in Table 9.
After an appropriate time, rabbits were euthanized and vitreous humour, aqueous humour, retina and plasma samples were taken. Samples were analysed by LC-MS to determine the concentration of the peptide. The results of this study are shown in FIG. 5 where it can be observed that both peptides were slowly cleared from the vitreous humour, with elimination half-lives of 20-30 h.

T1 sequence (P03952 391-638 limits assumed): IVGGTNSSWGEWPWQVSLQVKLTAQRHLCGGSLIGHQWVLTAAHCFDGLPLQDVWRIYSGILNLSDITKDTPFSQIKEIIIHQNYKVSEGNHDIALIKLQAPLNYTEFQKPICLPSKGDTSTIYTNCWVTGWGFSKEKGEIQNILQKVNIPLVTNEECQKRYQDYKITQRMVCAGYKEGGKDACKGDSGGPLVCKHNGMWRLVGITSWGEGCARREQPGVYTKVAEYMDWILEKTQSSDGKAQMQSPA
T1 sequence (P03952 20-390 partner limits assumed): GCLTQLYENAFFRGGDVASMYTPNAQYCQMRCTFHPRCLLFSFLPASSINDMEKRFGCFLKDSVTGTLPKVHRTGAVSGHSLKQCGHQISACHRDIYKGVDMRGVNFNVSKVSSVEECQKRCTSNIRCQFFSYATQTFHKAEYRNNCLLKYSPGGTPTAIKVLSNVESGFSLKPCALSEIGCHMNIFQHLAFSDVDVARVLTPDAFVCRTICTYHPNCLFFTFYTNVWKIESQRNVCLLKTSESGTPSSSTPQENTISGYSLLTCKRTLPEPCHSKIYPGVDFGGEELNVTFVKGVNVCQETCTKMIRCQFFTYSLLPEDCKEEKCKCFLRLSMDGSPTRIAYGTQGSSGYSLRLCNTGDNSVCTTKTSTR

CC[C@H](C)[C@@H]1NC(=O)[C@H](CC(=O)O)NC(=O)[C@@H]2CCCN2C(=O)[C@H](Cc2ccc(O)cc2)NC(=O)[C@H](Cc2ccc(O)cc2)NC(=O)[C@H](C(C)C)NC(=O)[C@@H]2CSCc3cc(cc(c3)CSC[C@@H](C(=O)N[C@@H](C)C(=O)N(C)CC(=O)N(C)CC(=O)N(C)CC(=O)N[C@H](CCCNC(=N)N)C(=O)N[C@H](CCCNC(=N)N)C(N)=O)NC1=O)CSC[C@H](NC(C)=O)C(=O)N[C@@H](CO)C(=O)N[C@@H](Cc1ccccc1)C(=O)N1CC[C@H]1C(=O)N[C@@H](Cc1ccc(O)cc1)C(=O)N[C@@H](CCCCNC(=N)N)C(=O)N2 [Ac-(06-550)-Sar3-(DArg2) Aze3HArg5] (Ac-CSF[Aze]Y[hArg]CVYYPDICA[Sar][Sar][Sar][dR][dR]-NH2; linker 1-7-14 via TBMB; C-terminus assumed)
Ki (human plasma kallikrein): 400 pM
comparative stability in rat plasma [1]: high stability
comparative stability in rat plasma ([1]; listed as 06-550 derivative): Little degradation is observed
comparative stability in human plasma [2]: high stability
comparative stability in human plasma ([2]; listed as 06-550 derivative): Little degradation is observed
clearance [3]: 17 mL/min/kg
Vd ([3]; read-out: Vss): 0.4 L/kg
half-life ([3]; read-out: t1/2 elimination): 2.27 h
half-life [4]: 20 to 30 h
